Measurements as given in paper PMC11489056, “Molecular mechanism of a triazole-containing inhibitor of Mycobacterium tuberculosis DNA gyrase” (iScience, 2024).
≈ marks a conversion by molar mass, not a printed value. Read-outs that look alike come from different tables or passages of the source.

Tests used:
physchem [1] = format: physicochemical; conditions: pH 7.4, aqueous buffer, kinetic from dmso stock
Experimental: 10μL of a 10 mM solution in DMSO of the compound are diluted in 490 μL of PBS pH 7.4 in Matrix tube (in triplicate) or organic solvent (ACN, MeOH) in Matrix tube (in triplicate). The tubes are gently shaken 24h at room temperature. Then the tubes are centrifuged for 5 minutes at 4000 rpm and filtered over 0.45 μm filters (Millex-LH Millipore). 20 μL of each tube are diluted in 180 μL of MeOH. Analysis is performed thanks to a UPLC-MS/MS system (Waters) under SIM detection using the parameters optimized for each compound. HPLC analysis was performed using an Aquity C18 (50x2.1 mm, 1.8 μm); the gradient and the mobile phase (flow rate 600 μL/min^-1) used are determined in order to detect the compound of interest with satisfying retention time and peak shape. Acquisition and analysis of data were performed with Masslynx software. The solubility is determined by the ratio of mass signal area PBS/ organic solvent.

physchem [2] = format: physicochemical; conditions: pH 7.4
Experimental: 40 μL of a 10 mM solution in DMSO of the compound were diluted in 1.960 mL of a 1/1 octanol/PBS at pH 7.4 solution. The mixture was gently shaken 2h at room temperature. 20 μL of each solution was diluted in 480 μμL of MeOH and analyzed by LC-MS. Each compound is tested in triplicate. Analysis is performed thanks to a UPLC-MS/MS triple-quadrupole system (Waters) under SIM or MRM detection using the parameters optimized for each compound. HPLC analysis was performed using an Aquity C18 (50x2.1 mm, 1.8 μm); the gradient and the mobile phase (flow rate 600μL/min^-1) used are determined in order to detect the compound of interest with satisfying retention time and peak shape. Acquisition and analysis of data were performed with MS Workstation™ software (version 6.3.0 or higher). LogD was determined as the logarithm of the ratio of concentrations of product in octanol and PBS, determined by mass signals.

E. coli = assay: MIC, agar dilution method, ESKAPE strains; format: cell-based, Escherichia coli
S. aureus = assay: MIC, agar dilution method, ESKAPE strains; format: cell-based; conditions: Staphylococcus aureus
E. faecium = assay: MIC, agar dilution method, ESKAPE strains; format: cell-based; conditions: Enterococcus faecium; read-out: MIC E. faecium MDR(5)
A. baumannii = assay: MIC, agar dilution method, ESKAPE strains; format: cell-based; conditions: Acinetobacter baumannii
[3] = target: wild-type E. coli DNA gyrase (Escherichia coli, UniProt P0AES4+P0AES6); assay: biochemical; conditions: read-out: IC50 E. coli WT
wild-type Mtb gyrase = target: T1, wild-type Mtb gyrase (Mycobacterium tuberculosis, UniProt P9WG45+P9WG47); format: biochemical
T1 construct: His tag (TEV-cleavable) (N, cleaved yes); made in house; host or cells: E. coli Bli5 (DE3)

[4] = test system: Mycobacterium tuberculosis H37Rv WT; assay: microbe, parasite or virus in culture; format: cell-based
[5] = test system: Corynebacterium glutamicum (Cglu) WT; assay: MIC on Cglu WT; format: cell-based
K. pneumoniae = assay: MIC, agar dilution method, ESKAPE strains; format: cell-based; conditions: Klebsiella pneumoniae
Mtb GyrBA fusion protein [6] = target: T2, Mtb GyrBA fusion protein (Mycobacterium tuberculosis, UniProt P9WG45+P9WG47); assay: DNA cleavage assay on pBR322; format: biochemical; conditions: pBR322 5 nM, Mtb gyrase 200 nM, 5 μM inhibitor
T2 construct: His6 (TEV-cleavable) (N, cleaved yes); made in house; host or cells: E. coli Bli5 (DE3)

Mtb GyrBA fusion protein [7] = target: T2, Mtb GyrBA fusion protein; assay: DNA cleavage competition with ciprofloxacin; format: biochemical
Mtb GyrBA fusion protein [8] = target: T2, Mtb GyrBA fusion protein; assay: Cleavage complex persistence (DNA cleavage-religation assay); format: biochemical
[9] = test system: wild-type C. glutamicum ATCC1332 strain; assay: Bacterial cell morphology (cell length) by microscopy; format: cell-based, Corynebacterium glutamicum; conditions: 10x MIC, 24h, vs DMSO control
Mtb = conditions: Figure 1F; cited from earlier work
Mtb gyrase = conditions: Figure 1E, GlaxoSmithKline MGIs; cited from earlier work
[10] = Escherichia coli, E. coli 10385 NDM-1, read-out: MIC E. coli MDR(2)
[11] = Escherichia coli, read-out: MIC E. coli WT(1)
[12] = read-out: MIC A. baumannii MDR(6)
[13] = Escherichia coli, 2 h, read-out: MIC E. coli WT
[14] = Escherichia coli, ATCC25922, read-out: MIC
[15] = Escherichia coli, E. coli 9003, BLSE, read-out: MIC
[16] = A. baumannii 09010, VEB-1, read-out: MIC

SMILES: COc1ccc2nccc(-n3cc(CCNCc4ccc5c(c4)NC(=O)CO5)nn3)c2c1 [BDM71346 (9c)]
- solubility at 24 h (physchem [1]): 76.9 µg/mL (≈ 179 µM)
- logD (physchem [2]): 1.32
- MIC (E. coli; [10]): 0.5 µg/mL (≈ 1.16 µM)
- MIC (E. coli; [11]): 8 µg/mL (≈ 18.6 µM)
- MIC (S. aureus; read-out: MIC S. aureus MDR(4)): 32 µg/mL (≈ 74.3 µM)
- MIC (S. aureus; read-out: MIC S. aureus WT(3)): 16 µg/mL (≈ 37.2 µM)
- MIC (E. faecium): 1 µg/mL (≈ 2.32 µM)
- MIC (A. baumannii; [12]): 4 µg/mL (≈ 9.29 µM)
- IC50 [3]: 780 nM

SMILES: COc1ccc2nccc(-n3cc(CCNC(=O)c4ccc5c(c4)NC(=O)CS5)nn3)c2c1 [BDM71367 (11a)]
- solubility at 24 h (physchem [1]): < 0.17 µg/mL
- logD (physchem [2]): > 2.65
- MIC (E. coli; [10]): 0.25 µg/mL (≈ 0.543 µM)
- MIC (E. coli; [11]): 8 µg/mL (≈ 17.4 µM)
- MIC (S. aureus; read-out: MIC S. aureus MDR(4)): 4 µg/mL (≈ 8.69 µM)
- MIC (S. aureus; read-out: MIC S. aureus WT(3)): 4 µg/mL (≈ 8.69 µM)
- MIC (E. faecium): 8 µg/mL (≈ 17.4 µM)
- MIC (A. baumannii; [12]): 4 µg/mL (≈ 8.69 µM)

SMILES: COc1ccc2nccc(-n3cc(CCNCc4ccc5c(c4)NC(=O)CS5)nn3)c2c1 [BDM71368 (9a)]
- solubility at 24 h (physchem [1]): 84.7 µg/mL (≈ 190 µM)
- logD (physchem [2]): 1.81
- MIC (E. coli; [13]): 1 µg/mL (≈ 2.24 µM)
- MIC (E. coli; [10]): ≤ 0.06 µg/mL
- MIC (E. coli; [11]): 1 µg/mL (≈ 2.24 µM)
- MIC (S. aureus; read-out: MIC S. aureus MDR(4)): 1 µg/mL (≈ 2.24 µM)
- MIC (S. aureus; read-out: MIC S. aureus WT(3)): 1 µg/mL (≈ 2.24 µM)
- MIC (E. faecium): 0.5 µg/mL (≈ 1.12 µM)
- MIC (A. baumannii; [12]): 1 µg/mL (≈ 2.24 µM)
- IC50 [3]: 1170 nM
- IC50 lower than ciprofloxacin (wild-type Mtb gyrase): 10 fold
- IC50 lower than gepotidacin (wild-type Mtb gyrase): 6 fold
- MIC [4]: 1 µg/mL (≈ 2.24 µM)
- MIC [5]: 0.5 µg/mL (≈ 1.12 µM)

SMILES: COc1ccc2nccc(-n3cc(CCNCc4ccc5c(c4)OCCO5)nn3)c2c1 [BDM71369 (9b)]
- solubility at 24 h (physchem [1]): > 83.5 µg/mL
- logD (physchem [2]): 1.21
- MIC (E. coli; [10]): 1 µg/mL (≈ 2.4 µM)
- MIC (E. coli; [11]): 32 µg/mL (≈ 76.7 µM)
- MIC (S. aureus; read-out: MIC S. aureus MDR(4)): 1 µg/mL (≈ 2.4 µM)
- MIC (S. aureus; read-out: MIC S. aureus WT(3)): 1 µg/mL (≈ 2.4 µM)
- MIC (E. faecium): 0.25 µg/mL (≈ 0.599 µM)
- MIC (A. baumannii; [12]): 32 µg/mL (≈ 76.7 µM)
- IC50 [3]: 130 nM

SMILES: COc1ccc2nccc(-n3cc(CCNC(=O)c4ccc5c(c4)OCCO5)nn3)c2c1 [BDM71373 (11b)]
- solubility at 24 h (physchem [1]): 10.2 µg/mL (≈ 23.6 µM)
- logD (physchem [2]): 2.35
- MIC (E. coli; [10]): 32 µg/mL (≈ 74.2 µM)
- MIC (E. coli; [11]): ≥ 32 µg/mL
- MIC (S. aureus; read-out: MIC S. aureus MDR(4)): ≥ 32 µg/mL
- MIC (S. aureus; read-out: MIC S. aureus WT(3)): ≥ 32 µg/mL
- MIC (E. faecium): ≥ 32 µg/mL
- MIC (A. baumannii; [12]): 32 µg/mL (≈ 74.2 µM)

SMILES: COc1ccc2nccc(-n3cc(CCNCc4ccc5c(c4)NC(=O)CS5)nn3)c2n1 [BDM71403 (10a)]
- solubility at 24 h (physchem [1]): 44 µg/mL (≈ 98.3 µM)
- logD (physchem [2]): 1.92
- MIC (E. coli): 0.5 µg/mL (≈ 1.12 µM)
- MIC (E. coli; [13]): 1 µg/mL (≈ 2.23 µM)
- MIC (E. coli; [14]): 1 µg/mL (≈ 2.23 µM)
- MIC (E. coli; [15]): 1 µg/mL (≈ 2.23 µM)
- MIC (E. coli; Escherichia coli, E. coli 10269, NDM-1, read-out: MIC): 1 µg/mL (≈ 2.23 µM)
- MIC (E. coli; Escherichia coli, E. coli 10273, KPC-2, read-out: MIC): 1 µg/mL (≈ 2.23 µM)
- MIC (E. coli; Escherichia coli, E. coli 10385, NDM-1, read-out: MIC): < 0.06 µg/mL
- MIC (E. coli; [10]): ≤ 0.06 µg/mL
- MIC (E. coli; Escherichia coli, E. coli 10386, NDM-1, read-out: MIC): 1 µg/mL (≈ 2.23 µM)
- MIC (E. coli; Escherichia coli, read-out: MIC): 1 µg/mL (≈ 2.23 µM)
- MIC (E. coli; [11]): 1 µg/mL (≈ 2.23 µM)
- MIC (S. aureus; read-out: MIC S. aureus MDR(4)): 0.25 µg/mL (≈ 0.559 µM)
- MIC (S. aureus; read-out: MIC S. aureus WT(3)): 0.25 µg/mL (≈ 0.559 µM)
- MIC (E. faecium): ≤ 0.06 µg/mL
- MIC (A. baumannii; [16]): 1 µg/mL (≈ 2.23 µM)
- MIC (A. baumannii; A. baumannii 10275, VIM-4, read-out: MIC): < 0.06 µg/mL
- MIC (K. pneumoniae; K. pneumoniae 10270, VIM): 4 µg/mL (≈ 8.94 µM)
- MIC (K. pneumoniae; K. pneumoniae 10272, 0XA-48): 2 µg/mL (≈ 4.47 µM)
- MIC (K. pneumoniae; K. pneumoniae 10277, KPC-2): 2 µg/mL (≈ 4.47 µM)
- IC50 [3]: 80 nM
- IC50 lower than ciprofloxacin (wild-type Mtb gyrase): 12 fold
- IC50 lower than gepotidacin (wild-type Mtb gyrase): 7 fold
- MIC [4]: 0.5 µg/mL (≈ 1.12 µM)
- MIC [5]: 0.12 µg/mL (≈ 0.268 µM)
- minor population of linearized DNA (Mtb GyrBA fusion protein [6]): 10–20%
- concentration at which nicked DNA is diminished by 50% (Mtb GyrBA fusion protein [7]): 10 µM
- lower concentration for drop of nicked DNA to 50% in comparison with gepotidacin (Mtb GyrBA fusion protein [7]): 2.5 fold
- difference in complex half-life versus gepotidacin (Mtb GyrBA fusion protein [8]): 10 fold
- Cohen's d, cell length compared to control [9]: 1.87
- effect size class, cell length compared to control [9]: ∗∗∗ (very large (∗∗∗), 1.20 < d < 2.0)

SMILES: COc1ccc2nccc(-n3cc(CCNCc4ccc5c(c4)OCCO5)nn3)c2n1 [BDM71404 (10b)]
- solubility at 24 h (physchem [1]): 66.9 µg/mL (≈ 160 µM)
- logD (physchem [2]): 1.53
- MIC (E. coli; [10]): 0.25 µg/mL (≈ 0.597 µM)
- MIC (E. coli; [11]): 8 µg/mL (≈ 19.1 µM)
- MIC (S. aureus; read-out: MIC S. aureus MDR(4)): 0.25 µg/mL (≈ 0.597 µM)
- MIC (S. aureus; read-out: MIC S. aureus WT(3)): 0.25 µg/mL (≈ 0.597 µM)
- MIC (E. faecium): ≤ 0.06 µg/mL
- IC50 [3]: 380 nM

SMILES: O=C(O)c1cn(C2CC2)c2cc(N3CCNCC3)c(F)cc2c1=O [Ciprofloxacin, ciprofloxacin, reference compound]
- MIC (E. coli; [13]): ≤ 0.06 µg/mL
- MIC (E. coli; [14]): < 0.06 µg/mL
- MIC (E. coli; [15]): 16 µg/mL (≈ 48.3 µM)
- MIC (E. coli; [11]): ≤ 0.06 µg/mL
- MIC (S. aureus; read-out: MIC S. aureus MDR(4)): ≥ 128 µg/mL
- MIC (E. faecium): ≥ 128 µg/mL
- MIC (A. baumannii; [16]): > 32 µg/mL
- MIC [4]: 1 µg/mL (≈ 3.02 µM)
- MIC [5]: 0.25 µg/mL (≈ 0.754 µM)
- Cohen's d, cell length compared to control [9]: 2.08

SMILES: COc1cnc2ccc(=O)n(CCN3CCC(Nc4cnc(CO)c(Cl)c4)CC3)c2c1 [EC/11716]
- MIC (Mtb): 0.17 µg/mL (≈ 0.383 µM)

SMILES: COc1cnc2ccc(=O)n(CCN3CCC(Nc4ccc(Cl)c(Cl)c4)CC3)c2c1 [GSK000]
- IC50 (Mtb gyrase): 5400 nM

SMILES: O=c1ccc2ncc(=O)n3c2n1C[C@H]3CN1CCC(NCc2cc3c(cn2)OCCC3)CC1 [Gepotidacin, gepotidacin, reference compound]
- MIC [4]: 4 µg/mL (≈ 8.92 µM)
- MIC [5]: 0.2 µg/mL (≈ 0.446 µM)
- minor population of linearized DNA (Mtb GyrBA fusion protein [6]): 10–20%
- Cohen's d, cell length compared to control [9]: 2.36
- effect size class, cell length compared to control [9]: ∗∗∗∗ (huge (∗∗∗∗), d > 2.0)
